Experimental data from publication PMC11249626, “Fluorophore-Labeled Pyrrolones Targeting the Intracellular Allosteric Binding Site of the Chemokine Receptor CCR1” (ACS Pharmacology & Translational Science, 2024).

What was measured:
[1] = biological target: vasopressin-2 receptor (V2R); parameters: method as in PMID 17435162; details: cited from earlier work
CCR9 = biological target: T1, CCR9 (Homo sapiens, UniProt P51686); test: Membrane-based NanoBRET saturation binding assay, CCR9_Nluc membranes; details: compared with CCR1
T1 construct: host or cells: HEK293T, transient
T1 sequence (P51686 1-369): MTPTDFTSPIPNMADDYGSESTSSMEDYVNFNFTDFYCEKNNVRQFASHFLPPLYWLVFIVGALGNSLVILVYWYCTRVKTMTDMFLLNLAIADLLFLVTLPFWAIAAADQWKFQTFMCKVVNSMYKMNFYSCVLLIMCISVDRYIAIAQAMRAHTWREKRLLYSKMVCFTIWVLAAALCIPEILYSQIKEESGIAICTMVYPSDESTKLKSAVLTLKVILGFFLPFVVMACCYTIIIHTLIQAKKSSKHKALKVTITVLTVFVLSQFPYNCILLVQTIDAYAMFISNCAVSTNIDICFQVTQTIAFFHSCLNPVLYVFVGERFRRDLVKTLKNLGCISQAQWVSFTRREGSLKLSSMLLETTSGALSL
Procedure: (§1) Emission spectra of Nluc -labeled CCR1 (CCR1_Nluc) protein: The emission spectra of CCR1_Nluc has already been reported by Toy et al.1 For a confirmation of the reported data with new CCR1_Nluc membrane batches, furimazine (Promega, Mannheim, Germany 1:2000) was added to the membrane preparations (2 µg protein/well). […]
(§2) NanoBRET binding assays: Membrane-based NanoBRET saturation assay: For the establishment of our NanoBRET binding assay, we referred to recently published protocols. […]
(§3) Then, 20 µL of the membrane preparations diluted in assay buffer (3 µg total protein/well) were added and the plates were incubated for 90 min at 37 °C. Subsequently, 5 µL of a furimazine solution (Promega, Mannheim, Germany, final assay dilution: 1:5,000) were added to each well (final assay volume: 35 µL) before measuring luminescence with a CLARIOstar microplate reader using 620/10 nm and 475/30 nm emission filters after 5 min of incubation in the dark. Bioluminescence resonance energy transfer (BRET) was determined as the ratio of acceptor fluorescence and donor luminescence. […] Specific binding signals were calculated as a difference of total and non-specific binding. If required, netBRET values were calculated as the difference between total BRET values and the values obtained in the absence of a fluorescent ligand. […]

CXCR2 = biological target: T2, CXCR2 (Homo sapiens, UniProt P25025); test: Membrane-based NanoBRET saturation binding assay, CXCR2_Nluc membranes; details: compared with CCR1
T2 construct: host or cells: HEK293T, transient
T2 sequence (P25025 1-360): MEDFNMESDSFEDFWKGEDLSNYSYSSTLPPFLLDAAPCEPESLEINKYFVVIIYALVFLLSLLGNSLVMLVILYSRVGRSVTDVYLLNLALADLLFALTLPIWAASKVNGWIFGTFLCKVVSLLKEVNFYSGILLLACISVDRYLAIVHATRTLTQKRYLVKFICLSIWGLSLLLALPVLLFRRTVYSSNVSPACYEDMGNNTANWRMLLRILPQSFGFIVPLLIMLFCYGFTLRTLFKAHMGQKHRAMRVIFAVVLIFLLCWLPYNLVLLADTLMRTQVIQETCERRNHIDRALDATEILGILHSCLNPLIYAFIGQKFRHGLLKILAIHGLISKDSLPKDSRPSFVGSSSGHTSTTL
Procedure: as §1, §2, §3

CXCR1 = biological target: T3, CXCR1 (Homo sapiens, UniProt P25024); test: Membrane-based NanoBRET saturation binding assay, CXCR1_Nluc membranes
T3 construct: host or cells: HEK293T, transient
T3 sequence (P25024 1-350): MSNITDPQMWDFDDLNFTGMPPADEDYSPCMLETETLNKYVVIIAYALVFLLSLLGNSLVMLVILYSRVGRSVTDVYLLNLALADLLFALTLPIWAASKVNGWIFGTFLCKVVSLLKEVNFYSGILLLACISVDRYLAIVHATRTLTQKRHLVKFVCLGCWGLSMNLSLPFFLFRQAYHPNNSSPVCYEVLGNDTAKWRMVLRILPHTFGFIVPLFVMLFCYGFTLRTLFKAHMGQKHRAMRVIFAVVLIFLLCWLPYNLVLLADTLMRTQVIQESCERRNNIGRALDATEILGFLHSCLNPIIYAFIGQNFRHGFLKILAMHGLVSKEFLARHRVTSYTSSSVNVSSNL
Procedure: as §1, §2, §3

| Structure (SMILES) | Ki [1] [µM] | Binding signal for CCR9 (CCR9) | Binding signal for CXCR2 (CXCR2) | Kd (CXCR1) [µM] |
| --- | --- | --- | --- | --- |
| O=C(C1=C(O)C(=O)N(CCc2ccc(O)cc2)C1c1ccc(F)cc1)c1ccccc1 (racemic) [compound 23] | ~0.07 |  |  |  |
| CN(C)c1ccc2c(-c3cc(C(=O)NCCOCCOCc4cn(CCCC(=O)C5=C(O)C(=O)N(c6ccc(Br)cc6F)C5C5CCCCC5)nn4)ccc3C(=O)[O-])c3ccc(=[N+](C)C)cc-3oc2c1 (stereo not shown) [compound 12] |  | much weaker | much weaker | 12.3 ± 0.3 |
